Results published in patent publication US20260325506A1, “METHODS OF TREATING POST-TRAUMATIC STRESS DISORDER AND ALCOHOL USE DISORDER” (FLORIDA ATLANTIC UNIVERSITY RESEARCH CORPORATION, priority 2023, published 2026).
Entries after “also recorded” stand apart in the source; their conditions may differ.

Assays:
[1] = test system: delta receptor; conditions: PPL-138 like buprenorphine; cited from earlier work
[2] = test system: kappa receptor; conditions: PPL-138 like buprenorphine; cited from earlier work
[3] = test system: irritable bowel syndrome (IBS); conditions: models of irritable bowel syndrome (IBS); cited from earlier work
[4] = test system: SPS-induced thermal hyperalgesia in Sprague Dawley (SD) rats; experiment: thermal sensitivity (hyperalgesia), paw withdrawal latency (PWL) after SPS; type: in vivo; conditions: for thermal hyperalgesia (PWL, FIG. 4D): female SPS rats; for thermal hyperalgesia (PWL, FIG. 4D) / thermal hyperalgesia (PWL, FIG. 4C): 28 days; for thermal hyperalgesia (PWL, FIG. 4C): male SPS rats
Experimental: (§1) SPS procedure: 2 h of complete restraint in disposable plastic holders, followed by grouped (2-3 rats) forced swim for 20 min in a cylindrical tank (46 cm tall×20 cm in diameter) filled with 22-25° C. water to a depth of 30 cm. After 15 min recovery and drying period, rats are exposed to diethyl ether until loss of consciousness and left undisturbed (except for drug or vehicle injection) and alone for 7 days, after which they are pair housed. All rats are housed with soft bedding, observed for signs of pain or discomfort: weight loss, lack of grooming, or porphyrin staining; any such rats is excluded from study.
(§2) Drug Treatment: PPL-138 (0.3 and 1 mg/kg) is dissolved in the same vehicle as 10 mg/kg SB (3% DMSO+97% of 0.5% hydroxypropyl cellulose (HPC)). Drug treatment (i.p.) begins immediately after exposure to ether and continues every other day thereafter. Ctr and SPS rats receive vehicle (3% DMSO+97% 0.5% HPC) injections.
(§3) Degree of enhanced nociceptive sensitivity by SPS to tactile and thermal stimuli were reduced in this cohort likely a result of group housing during the first 7 days instead of our usual solo housing (FIG. 2). […] PPL-138 reduced serum N/OFQ levels compared to SPS (p<0.05 by Tukey's post-hoc test).
(§4) Control (Ctr) and SPS-treated male and female SD rats are treated 3 times each week with Veh, PPL-138 (0.3 and 1 mg/kg, s.c.) or the NOP antagonist SB612111 (SB; 3 mg/kg, i.p.). […] SB alleviates TBI- and 6-OHDA Parkinson disease model-induced locomotor deficits and brain hypoxia.
(§5) Sensitivity to tactile and thermal sensitivity in males and females was determined by paw withdrawal threshold to increasing pressure (PWT; tactile) and paw withdrawal latency to a thermal stimulus (PWL) (FIG. 4). There was a significant interaction between time and treatment for sensitivity to both tactile (A) and thermal (C) stimuli for males ([F (28, 228)=1.708, p=0.0182] and [F (28, 228)=4.276, p<0.0001]), respectively, as well as for thermal sensitivity (D) in females [F (28, 164)=2.286, p=0.0007]. […] Allodynia was reversed by 0.3 mg/kg PPL-138 and by SB in males, and by 1 mg/kg PPL-138 in females (#p<0.05). Thermal hyperalgesia was reversed by both doses of PPL-138 and SB in males, and by 1 mg/kg PPL-138 and SB in females.

[5] = test system: SPS induced anxiety-like behaviors in Sprague Dawley (SD) rats; experiment: Elevated Plus Maze (EPM), SPS induced anxiety-like behaviors; type: in vivo; conditions: for Anxiety index (FIG. 3B): female SD rats (n=6, not yet fully powered)
Experimental: as §1
Elevated Plus Maze (EPM): Rats will be tested for anxiety-like behaviors. The percentage of open arm entries (number of entries into the open arms divided by total number of entries in both arms), time spent in the open arms, total distance traveled, and total time spent immobile are noted. The anxiety index (AI) is calculated where total exploration on the maze represents the total number of arm entries: Anxiety Index=1−[[(time spent in open arms/total time on the maze (300 sec))+(number of entries into open arms/total number of arm entries)]/2]. Each animal is tested at 9 and 30 days post-SPS.
as §2
Anxiety index reflects a combination of three anxiety-like behaviors.
as §4

[6] = test system: SPS-induced allodynia in Sprague Dawley (SD) rats; experiment: tactile sensitivity (allodynia), paw withdrawal threshold (PWT) after SPS; type: in vivo; conditions: for allodynia (PWT, FIG. 4A): male SPS rats; for paw withdrawal threshold, allodynia (FIG. 2A): male SD rats, 1 mg/kg i.p., days 14, 21 and 28, SPS vs SPS+PPL-138, p<0.05 (Tukey)
Experimental: as §1, §2, §3, §4, §5

[7] = test system: 6-OHDA Parkinson disease model-induced locomotor deficits and brain hypoxia; conditions: cited from earlier work
[8] = test system: neuropathy; conditions: models of neuropathy; cited from earlier work
[9] = test system: TBI-induced locomotor deficits and brain hypoxia; conditions: cited from earlier work
[10] = test system: SPS-induced allodynia and anxiety-like behaviors; conditions: less selective NOP receptor antagonist than SB; cited from earlier work
[11] = target: NOP receptor; conditions: all four members of the opioid receptor family; cited from earlier work
[12] = target: mu opioid receptor; conditions: all four members of the opioid receptor family; cited from earlier work
[13] = test system: N/OFQ; experiment: serum N/OFQ levels after SPS; type: in vivo, Sprague Dawley (SD) rats; conditions: end of pilot study, compared to SPS, p<0.05 (Tukey); ANOVA F (2, 12)=4.147, p=0.0421
Experimental: as §1, §2, §3

[14] = test system: NOP receptor; conditions: higher than buprenorphine; cited from earlier work
[15] = test system: mu opioid receptor; conditions: less than buprenorphine; cited from earlier work
[16] = target: kappa opioid receptor; conditions: all four members of the opioid receptor family; cited from earlier work
[17] = target: delta opioid receptor; conditions: all four members of the opioid receptor family; cited from earlier work

## CO[C@@]12CC[C@@]3(C[C@@H]1[C@](C)(O)C(C)(C)C)[C@H]1Cc4ccc(O)c5c4[C@@]3(CCN1CC1CC1)[C@H]2O5 [buprenorphine, reference compound]
[1]
  activity at delta receptor: antagonist
[2]
  activity at kappa receptor: antagonist

## Cc1cccc2c1CC[C@H](CN1CCC(c3c(Cl)cccc3Cl)CC1)C[C@@H]2O [SB612111]
[3]
  antinociception: produces antinociception
[4]; SB 3 mg/kg i.p.
  thermal hyperalgesia (PWL, FIG. 4D): reversed
  thermal hyperalgesia (PWL, FIG. 4C): reversed
[5]; SB 3 mg/kg i.p., day 9 post-SPS
  Anxiety index (FIG. 3B): significant effect
[5]; male SD rats, SB 3 mg/kg i.p., day 30 post-SPS
  Anxiety index (FIG. 3A): significant effects
[6]; SB 3 mg/kg i.p., 28 days, #p<0.05
  allodynia (PWT, FIG. 4A): reversed
[7]
  brain hypoxia: alleviates
  locomotor deficits: alleviates
[8]
  antinociception: produces antinociception
[9]
  brain hypoxia: alleviates
  locomotor deficits: alleviates

## CCc1ccc(OCc2ccccc2C(=O)Nc2ccc3nc(C)cc(N)c3c2)cc1 [JTC-801]
[10]
  SPS-induced allodynia: reversed
  SPS-induced anxiety-like behaviors: reversed

## O=C(CCc1ccccc1)O[C@@]12CCC(=O)[C@@H]3Oc4c(O)ccc5c4[C@@]31CCN(CC1CC1)[C@@H]2C5 [PPL-138, 14β-(3-phenylpropanoyl)-17-cyclopropylmethyl-7,8-dihydronoroxymorphinone]
[1]
  activity at delta receptor: antagonist
[11]
  Ki: < 10 nM
[2]
  activity at kappa receptor: antagonist
[12]
  Ki: < 10 nM
[4]; SD rats, overall statement
  hyperalgesia (FIG. 4): reduces
[4]; PPL-138 1 mg/kg s.c.
  thermal hyperalgesia (PWL, FIG. 4D): reversed
[4]; male SD rats, 1 mg/kg i.p., treatment F (2, 12)=7.56, p<0.01
  thermal sensitivity (FIG. 2B): reversed
[4]; PPL-138 0.3 mg/kg s.c. (both doses)
  thermal hyperalgesia (PWL, FIG. 4C): reversed
[4]; PPL-138 1 mg/kg s.c. (both doses)
  thermal hyperalgesia (PWL, FIG. 4C): reversed
[13]
  serum N/OFQ levels: reduced
[14]
  partial agonist activity at NOP receptor: partial agonist
[5]; PPL-138 1 mg/kg s.c., day 30 post-SPS
  Anxiety index (FIG. 3B): significant effect
[5]; female SD rats, overall statement
  anxiety-like behaviors (FIG. 3B): reduces
[5]; male SD rats, 1 mg/kg i.p., between groups (Ctr, SPS, SPS+PPL-138)
  distance travelled: no differences
[5]; male SD rats, 1 mg/kg i.p., days 9 and 30 post-SPS, treatment F (2,12)=5.066, p<0.05, PPL 138+SPS vs SPS *p<0.05, **p<0.01 (Tukey), 1 mg/kg
  open arm time (FIG. 1B): increased; also recorded: significant effect
[5]; male SD rats, 1 mg/kg i.p., days 9 and 30 post-SPS, treatment F (2,12)=9.912, p<0.005, PPL 138+SPS vs SPS *p<0.05, **p<0.01 (Tukey), 1 mg/kg
  anxiety index (FIG. 1A): reduced; also recorded: significant effect
[5]; male SD rats, 1 mg/kg i.p., days 9 and 30 post-SPS, treatment F (2,12)=11.99, p<0.005, PPL 138+SPS vs SPS *p<0.05, **p<0.01 (Tukey), 1 mg/kg
  open arm entries (FIG. 1C): increased; also recorded: significant effect
[5]; male SD rats, PPL-138 0.3 mg/kg s.c., day 30 post-SPS
  Anxiety index (FIG. 3A): significant effects
[5]; male SD rats, PPL-138 1 mg/kg s.c., day 9 post-SPS
  Anxiety index (FIG. 3A): significant effect
[5]; male SD rats, PPL-138 1 mg/kg s.c., day 30 post-SPS
  Anxiety index (FIG. 3A): significant effects
[5]; male SD rats, overall statement
  anxiety-like behaviors (FIG. 3A): reduces
[5]; males and females, overall conclusion
  development of PTSD-induced anxiety-like behaviors: reverses
[6]; SD rats, overall statement
  allodynia (FIG. 4): reduces
[6]; female SPS rats, PPL-138 1 mg/kg s.c., 28 days, #p<0.05
  allodynia (PWT, FIG. 4B): reversed
[6]; 1 mg/kg
  paw withdrawal threshold, allodynia (FIG. 2A): SPS rats had significantly lower paw withdrawal threshold
[6]; listed as PPL 138, 1 mg/kg
  paw withdrawal threshold, allodynia (FIG. 2A): reversed
[6]; PPL-138 0.3 mg/kg s.c., 28 days, #p<0.05
  allodynia (PWT, FIG. 4A): reversed
[6]; males and females, overall conclusion (tactile and thermal)
  development of PTSD-induced nociceptive sensitivity: reverses
[15]
  efficacy at mu: very low efficacy
[16]
  Ki: < 10 nM
[17]
  Ki: < 10 nM
